US5212075A, “Compositions and methods for introducing effectors to pathogens and cells” (priority 1991, dated 1993)

Assays:
E. coli K1 pilA+::tetR = test: microbe, parasite or virus in culture; assay type: cell-based; conditions: for IC100: Escherichia coli, 0.05 h, read-out: Concentration causing total inhibition of yeast agglutination; for Relative Inhibitory Activity: concentration of methyl α-D-mannopyranoside divided by the concentration of the compound
Description: Compounds 4, 6-9 and 12 were assayed for bacterial receptor binding using agglutination studies with yeast cells and their inhibitory activity was compared to that of methyl α-D-mannopyranoside 13 (Firon et al. (1983) Carbohydrate Research 120:235; Eshdat et al. (1978) Biochem. Biophys. Res. Commun. 85:1551; and Firon et al. (1982) Biochem. Biophys. Res. Commun. 105:1426. The bacterial strain used in our study was a systemically invasive E. coli K1 pilA+::tetR strain that is responsible for sepsis and meningitis in human infants (Bloch et al. (1990) Infection and Immunity 58:275). A summary of the results is given in Table 2.
^a E. coli K1 pilA+::tetR were grown for 24 h at 37° C. on
solid LB media supplemented with tetracycline and were suspended with a
cotton swab in 4 mL of Dulbecco's PBS to a final dilution of 2 ×
10^8 cells/mL. Yeast (Saccharomyces cerevisiae, wild type) were grown
for 36 h on solid YPD media at 30° C. and were suspended with a
cotton swab in 4 mL of Dulbecco's PBS to a final dilution of 1 ×
10^8 cells mL. Protein concentrations were determined by BCA Protein
Assay (Pierce). Agglutination assays were performed on a 20 well ceramic
ring plate. Typically, 90 μl of a solution of the test compound was
combined with 30 μl of the bacterial suspension. After 30 seconds, 30
μl of the yeast suspension was added to give a final volume of 150
μl and the wells were allowed to develop for 3 min. with agitation. A
μl aliquot was removed from each well and spread onto a standard
microscope slide. The slides were quickly heat fixed and mounted with 10
μl of glycerol. The slides were examined under phase contrast at
500× magnification using a Zeiss Axioskip microscope. Agglutination
was observed as clusters of cells. total inhibition of agglutination was
determined by the observation of single cells only.
^b Concentration causing total inhibition of yeast agglutination.

E. coli cell = test: Localization of protein A-gold particles on the E. coli cell surface by transmission electron microscopy; assay type: cell-based; conditions: avidin, anti-avidin antibodies, protein A labelled with gold particles (15 nm); no localization without hybrid molecule
Excerpt: The particles were bound through a hybrid molecule consisting of a mannose binding moiety attached to biotin through a carbon linkage. Avidin, anti-avidin antibodies, and protein A labelled with the gold particles were exposed to cell and completed a bridge binding the gold particles. The location of a gold particle is shown by the arrow.
FIG. 6 is an electron micrograph showing a strain of E. coli, similar to that illustrated in FIG. 5, in the absence of the hybrid molecule. The cell was exposed to avidin, anti-avidin antibodies, and protein A labelled with gold particles. No localization of the gold particles was achieved without the hybrid molecules.
E coli cells bound with avidin, as described above, were sequentially exposed to anti-avidin antibodies and gold (15 nm) colloidal particles bound to protein A. It was expected that the gold would localize on the E. coli cell surface through an antibody-protein A bridge. Localization on bacterial pili was confirmed by transmission electron microscopy (TEM). The results are shown in FIG. 5 (typical gold particle shown by arrow) and FIG. 6 (control where E. coli cells incubated with protein A-gold without anti-avidin antibody).

complement (Clq) = test: Binding of complement (Clq) to anti-avidin (IgG2) bound to E. coli through the hybrid molecule
Excerpt: Clq binding is the first step in the complement cascase which is part of the humoral response.

Molecule	IC100 (E. coli K1 pilA+::tetR)	Relative Inhibitory Activity (E. coli K1 pilA+::tetR)	other results
CCC[C@H]1O[C@H](CO)[C@@H](O)[C@H](O)[C@@H]1O [Compound 4]	7000 µM	9.6	–
O=[N+]([O-])c1ccc(O[C@H]2O[C@H](CO)[C@@H](O)[C@H](O)[C@@H]2O)cc1 [Compound 14, reference compound]	1600 µM	42	–
O=C(O)CC[C@H]1O[C@H](CO)[C@@H](O)[C@H](O)[C@@H]1O [Compound 6]	47000 µM	1.4	–
CO[C@H]1O[C@H](CO)[C@@H](O)[C@H](O)[C@@H]1O [Compound 13, methyl α-D-mannopyranoside, reference compound]	67000 µM	1	–
OCCC[C@H]1O[C@H](CO)[C@@H](O)[C@H](O)[C@@H]1O [Compound 8]	13000 µM	5.2	–
NCCC[C@H]1O[C@H](CO)[C@@H](O)[C@H](O)[C@@H]1O [Compound 7]	40000 µM	1.7	–
O=C(CCCC[C@@H]1SC[C@@H]2NC(=O)N[C@@H]21)NCCC[C@H]1O[C@H](CO)[C@@H](O)[C@H](O)[C@@H]1O [Compound 9]	7000 µM	9.6	Localization of gold particles on the E. coli surface (TEM) (E. coli cell): localization of gold particles on the surface of an E. coli cell; Clq binding to anti-avidin (IgG2) bound to E. coli (complement (Clq)): has also been shown
CCC[C@@H]1O[C@H](CO)[C@@H](O)[C@H](O)[C@@H]1O [Compound 12]	–	–	Inhibitory activity on agglutination (E. coli K1 pilA+::tetR; at a concentration of 100 mM): no inhibitory activity
avidin: avidin alone, a soluble glycosylated protein used in place of streptavidin [reference compound]	–	–	Concentration causing total inhibition of yeast agglutination (E. coli K1 pilA+::tetR; E. coli K1 pilA+::tetR with Saccharomyces cerevisiae, 3 min, single cells only under phase contrast): 0.4 mM
